Values after ≈ are worked out from the molar mass of the structure shown. Peptide text beside a SMILES is read from it.
Tests used:
P. aeruginosa 15442 = type: cell-based, Pseudomonas aeruginosa
Method: (§1) MICs were determined to evaluate the antimicrobial activities of the peptides. The bacteria were inoculated into Mueller‐Hinton broth (MHB) medium in advance and placed in a shaker at 37°C until the logarithmic growth phase. The optical density value at OD600 of the bacterial suspension was adjusted to 0.4, and then diluted 1000 times with sterile MHB medium. Subsequently, the peptides with concentrations of 0.25–128 μM were prepared using bovine serum albumin (BSA) solution (0.2% BSA and 0.01% acetic acid) as the solvent on a 96‐well plate. Different concentrations of peptides and bacterial liquids were mixed in equal volumes. MHB medium containing bacteria was used as a positive control. MHB medium without bacteria was used as a negative control. Then, the mixture of peptides and bacteria was cultured in an incubator at 37°C for 18–24 h. The optical density of each well was measured at 492 nm using a microplate reader. The lowest drug concentration corresponding to a culture mixture with an optical density of less than 0.1 is the MIC of the peptide. The assay was repeated three times in duplicate.

P. aeruginosa 27853 = type: cell-based, Pseudomonas aeruginosa
Method: as §1

S. aureus 1882 = type: cell-based, Staphylococcus aureus
Method: as §1

S. aureus 6538 = type: cell-based, Staphylococcus aureus
Method: as §1

E. coli K88 = type: cell-based, Escherichia coli; conditions: microbroth dilution, MHB, 37°C, 18–24 h, OD492 < 0.1; repeated three times in duplicate
Method: as §1

E. coli 25922 = type: cell-based, Escherichia coli
Method: as §1

E. coli K99 = type: cell-based, Escherichia coli; conditions: microbroth dilution, MHB, 37°C, 18–24 h, OD492 < 0.1; repeated three times in duplicate
Method: as §1

S. epidermidis 12228 = type: cell-based, Staphylococcus epidermidis
Method: as §1

red blood cells = type: cell-based, pig
Method: A series of parameters such as charge number, hydrophobicity, sequence length, and amphipathicity can affect the hemolytic activity of peptides against red blood cells. The minimal hemolytic concentration (MHC) refers to the minimum concentration that causes hemolysis of 10 % of red blood cells, and is often used to evaluate the hemolytic activity of the peptides. Except for SFK3, the percentage of hemolysis at 128 μM was below 5% for all peptides. Hemolysis of the erythrocytes occurred after incubation with Triton X‐100, with complete fragmentation of the erythrocytes and a bright red color of the reaction system (Figure 2B,C and Table S5).
The hemolytic activity of the peptide was calculated by measuring the level of […] released from mammalian red blood cell lysis induced by the peptide, [44]. Fresh porcine blood was collected from the jugular vein and washed with PBS three times, and red blood cells were collected. A red blood cell suspension of 10% (v/v) concentration was prepared in 10 mM PBS (pH = 7.4). After mixing with different concentrations of peptides in equal volume, they were incubated at 37°C for 2 h. Red blood cells treated with PBS and 0.1% Triton X‐100 were used as negative and positive controls, respectively. The assay was repeated three times. After the sample was centrifuged, the supernatant was transferred to a new 96‐well plate, and the optical density at 570 nm was measured using a microplate reader. Hemolysis was calculated as follows: Hemolytic activity(%)=ODtest sample−ODnegative control/ODpositive control−ODnegative control×100%

S. aureus ATCC 6538 = assay: Drug resistance assay, continuous passaging at sub-MIC; type: cell-based, Staphylococcus aureus
Method: The fold change in the MIC of peptides and […] against S. aureus ATCC 6538 was measured using the continuous passaging method to evaluate the development of drug resistance. The MIC values of the peptide and vancomycin against S. aureus ATCC 6538 were determined according to the above method, and the solutions in the sub‐MIC wells were aspirated and transferred to a fresh MHB medium for the next round of MIC determination. The procedure lasted for 30 days.

Structure (SMILES) | MIC P. aeruginosa 15442 (P. aeruginosa 15442) [µM] | MIC P. aeruginosa 27853 (P. aeruginosa 27853) [µM] | MIC S. aureus 1882 (S. aureus 1882) [µM] | MIC S. aureus 6538 (S. aureus 6538) [µM] | MIC E. coli K88 (E. coli K88) [µM] | MIC E. coli 25922 (E. coli 25922) [µM] | MIC E. coli K99 (E. coli K99) [µM] | MIC S. epidermidis 12228 (S. epidermidis 12228) [µM] | MHC (red blood cells) | Fold increase of MIC compared with the initial value (S. aureus ATCC 6538; Day 9, sub-MIC passaging) [fold] | MIC relative to the initial value (S. aureus ATCC 6538; end of the trial (30 days), sub-MIC passaging) [times]
CC[C@H](C)[C@H](NC(=O)[C@H](CCCNC(=N)N)NC(=O)[C@H](CO)NC(=O)[C@H](CC(C)C)NC(=O)[C@H](Cc1ccccc1)NC(=O)[C@H](Cc1ccccc1)NC(=O)[C@H](Cc1ccccc1)NC(=O)CNC(=O)CNC(=O)CNC(=O)[C@H](CO)NC(=O)[C@H](C)NC(=O)[C@H](CCCNC(=N)N)NC(=O)[C@@H](NC(=O)[C@H](Cc1c[nH]c2ccccc12)NC(=O)[C@H](Cc1ccc(O)cc1)NC(=O)[C@@H](N)CO)C(C)C)C(=O)N[C@@H](Cc1ccccc1)C(=O)N[C@@H](CCCCN)C(=O)N[C@@H](CCCCN)C(=O)N[C@@H](CCCCN)C(N)=O [SFK3] (H-SYWVRASGGGFFFLSRIFKKK-NH2) | >64 | >64 | 1 (≈ 2.48 µg/mL) | 2 (≈ 4.96 µg/mL) | 16 (≈ 39.7 µg/mL) | >64 | 16 (≈ 39.7 µg/mL) | >64 | >128 μM | – | –
CC[C@H](C)[C@H](NC(=O)[C@H](CCCNC(=N)N)NC(=O)[C@H](CO)NC(=O)[C@H](CC(C)C)NC(=O)[C@H](Cc1ccccc1)NC(=O)[C@H](Cc1ccccc1)NC(=O)[C@H](Cc1ccccc1)NC(=O)CNC(=O)CNC(=O)CNC(=O)[C@H](CO)NC(=O)[C@H](C)NC(=O)[C@H](CCCNC(=N)N)NC(=O)[C@@H](NC(=O)[C@H](Cc1c[nH]c2ccccc12)NC(=O)[C@H](Cc1ccc(O)cc1)NC(=O)[C@@H](N)CO)C(C)C)C(=O)N[C@@H](Cc1ccccc1)C(=O)N[C@@H](CCCCN)C(N)=O [SFK] (H-SYWVRASGGGFFFLSRIFK-NH2) | >64 | >64 | 2 (≈ 4.45 µg/mL) | 4 (≈ 8.9 µg/mL) | 32 (≈ 71.2 µg/mL) | >64 | 64 (≈ 142 µg/mL) | >64 | >128 μM | – | –
CC[C@H](C)[C@H](NC(=O)[C@H](CCCNC(=N)N)NC(=O)[C@H](CO)NC(=O)[C@H](CC(C)C)NC(=O)[C@H](Cc1ccccc1)NC(=O)[C@H](Cc1ccccc1)NC(=O)[C@H](Cc1ccccc1)NC(=O)CNC(=O)CNC(=O)CNC(=O)[C@H](CO)NC(=O)[C@H](C)NC(=O)[C@H](CCCNC(=N)N)NC(=O)[C@@H](NC(=O)[C@H](Cc1c[nH]c2ccccc12)NC(=O)[C@H](Cc1ccc(O)cc1)NC(=O)[C@@H](N)CO)C(C)C)C(=O)N[C@@H](Cc1ccccc1)C(=O)N[C@@H](CCCNC(=N)N)C(=O)N[C@@H](CCCNC(=N)N)C(N)=O [SFR2] (H-SYWVRASGGGFFFLSRIFRR-NH2) | >64 | >64 | 1 (≈ 2.41 µg/mL) | 4 (≈ 9.64 µg/mL) | 32 (≈ 77.1 µg/mL) | >64 | 64 (≈ 154 µg/mL) | >64 | >128 μM | – | –
CC[C@H](C)[C@H](NC(=O)[C@H](CCCNC(=N)N)NC(=O)[C@H](CO)NC(=O)[C@H](CC(C)C)NC(=O)[C@H](Cc1ccccc1)NC(=O)[C@H](Cc1ccccc1)NC(=O)[C@H](Cc1ccccc1)NC(=O)CNC(=O)CNC(=O)CNC(=O)[C@H](CO)NC(=O)[C@H](C)NC(=O)[C@H](CCCNC(=N)N)NC(=O)[C@@H](NC(=O)[C@H](Cc1c[nH]c2ccccc12)NC(=O)[C@H](Cc1ccc(O)cc1)NC(=O)[C@@H](N)CO)C(C)C)C(=O)N[C@@H](Cc1ccccc1)C(=O)N[C@@H](CCCNC(=N)N)C(=O)N[C@@H](CCCNC(=N)N)C(=O)N[C@@H](CCCNC(=N)N)C(N)=O [SFR3] (H-SYWVRASGGGFFFLSRIFRRR-NH2) | >64 | >64 | 4 (≈ 10.3 µg/mL) | 16 (≈ 41 µg/mL) | 32 (≈ 82.1 µg/mL) | >64 | >64 | >64 | >128 μM | – | –
CC[C@H](C)[C@H](NC(=O)[C@H](CCCNC(=N)N)NC(=O)[C@H](CO)NC(=O)[C@H](CC(C)C)NC(=O)[C@H](Cc1ccccc1)NC(=O)[C@H](Cc1ccccc1)NC(=O)[C@H](Cc1ccccc1)NC(=O)CNC(=O)CNC(=O)CNC(=O)[C@H](CO)NC(=O)[C@H](C)NC(=O)[C@H](CCCNC(=N)N)NC(=O)[C@@H](NC(=O)[C@H](Cc1c[nH]c2ccccc12)NC(=O)[C@H](Cc1ccc(O)cc1)NC(=O)[C@@H](N)CO)C(C)C)C(=O)N[C@@H](Cc1ccccc1)C(=O)N[C@@H](CCCNC(=N)N)C(N)=O [SFR] (H-SYWVRASGGGFFFLSRIFR-NH2) | >64 | >64 | 2 (≈ 4.51 µg/mL) | 2 (≈ 4.51 µg/mL) | 32 (≈ 72.1 µg/mL) | >64 | 32 (≈ 72.1 µg/mL) | >64 | >128 μM | – | –
CC[C@H](C)[C@H](NC(=O)[C@H](CCCNC(=N)N)NC(=O)[C@H](CO)NC(=O)[C@H](CC(C)C)NC(=O)[C@H](Cc1ccccc1)NC(=O)[C@H](Cc1ccccc1)NC(=O)[C@H](Cc1ccccc1)NC(=O)CNC(=O)CNC(=O)CNC(=O)[C@H](CO)NC(=O)[C@H](C)NC(=O)[C@H](CCCNC(=N)N)NC(=O)[C@@H](NC(=O)[C@H](Cc1c[nH]c2ccccc12)NC(=O)[C@H](Cc1ccc(O)cc1)NC(=O)[C@@H](N)CO)C(C)C)C(=O)N[C@@H](Cc1ccccc1)C(N)=O [SF] (H-SYWVRASGGGFFFLSRIF-NH2) | >64 | >64 | 2 (≈ 4.19 µg/mL) | 16 (≈ 33.5 µg/mL) | >64 | >64 | >64 | >64 | >128 μM | – | –
O=C(O)c1cn(C2CC2)c2cc(N3CCNCC3)c(F)cc2c1=O [ciprofloxacin] | – | – | – | – | – | – | – | – | – | 16 | 2560
